Reference: article PMC6516660, “Construction of a pathway to C50-ε-carotene” (PLoS ONE, 2019)
Changes are numbered by the printed parent chain.

What was measured:
Assay in all cases: carotenoid production in E. coli, HPLC-PDA-MS
Type in all cases: cell-based
[1] = biological target: T1, AtE (At-y2) (Arabidopsis thaliana, UniProt Q38932)
T1 construct: gene LUT2; full-length (transit peptide kept), pUCara plasmid, expressed in E. coli XL1-Blue with carotenoid pathway enzymes
T1 sequence (Q38932 1-524): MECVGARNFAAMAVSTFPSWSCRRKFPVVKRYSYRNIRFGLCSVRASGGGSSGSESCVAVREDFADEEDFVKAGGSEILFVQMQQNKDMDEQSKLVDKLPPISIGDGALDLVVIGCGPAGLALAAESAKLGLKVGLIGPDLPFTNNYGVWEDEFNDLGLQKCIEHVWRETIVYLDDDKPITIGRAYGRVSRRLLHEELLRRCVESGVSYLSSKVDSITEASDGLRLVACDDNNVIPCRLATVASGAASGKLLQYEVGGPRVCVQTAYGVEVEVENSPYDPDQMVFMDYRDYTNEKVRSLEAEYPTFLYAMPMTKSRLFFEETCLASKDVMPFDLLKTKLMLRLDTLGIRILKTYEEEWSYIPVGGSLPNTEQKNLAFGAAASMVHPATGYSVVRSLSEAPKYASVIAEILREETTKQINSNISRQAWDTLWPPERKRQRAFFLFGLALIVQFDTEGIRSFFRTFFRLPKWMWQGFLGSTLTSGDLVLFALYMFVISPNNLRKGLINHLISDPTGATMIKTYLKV

[2] = biological target: T2, LsE (Lactuca sativa, UniProt Q9AXK7); conditions: E. coli making C40-lycopene; product ε,ε-carotene
T2 construct: pUCara plasmid, expressed in E. coli XL1-Blue with carotenoid pathway enzymes
T2 sequence (Q9AXK7 1-533 limits assumed): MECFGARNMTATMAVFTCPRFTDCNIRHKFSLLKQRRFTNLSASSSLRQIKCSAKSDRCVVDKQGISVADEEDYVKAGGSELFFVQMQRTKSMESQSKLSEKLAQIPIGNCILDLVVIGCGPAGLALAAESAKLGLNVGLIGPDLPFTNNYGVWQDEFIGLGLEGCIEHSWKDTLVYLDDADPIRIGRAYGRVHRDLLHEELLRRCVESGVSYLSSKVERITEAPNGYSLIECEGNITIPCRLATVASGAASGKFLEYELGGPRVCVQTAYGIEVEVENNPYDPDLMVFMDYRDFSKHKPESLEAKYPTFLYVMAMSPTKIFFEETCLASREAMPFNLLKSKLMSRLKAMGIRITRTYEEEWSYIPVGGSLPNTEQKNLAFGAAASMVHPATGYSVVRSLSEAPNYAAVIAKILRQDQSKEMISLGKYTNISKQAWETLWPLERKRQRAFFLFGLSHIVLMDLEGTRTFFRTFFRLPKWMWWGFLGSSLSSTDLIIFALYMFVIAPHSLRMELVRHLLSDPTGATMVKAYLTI

[3] = biological target: T3, AtE (At-y2) (Arabidopsis thaliana, UniProt Q38932, L448H); conditions: E. coli making C40-lycopene
T3 construct: gene LUT2; full-length (transit peptide kept), pUCara plasmid, expressed in E. coli XL1-Blue with carotenoid pathway enzymes
T3 sequence (Q38932 1-524 L448H): T1 sequence (Q38932 1-524) with L448H

| Compound | carotenoid production in E. coli, HPLC-PDA-MS ([1]; E. coli making C50-lycopene, TB medium, L-arabinose induction, product C50-ε,ε-carotene) | carotenoid production in E. coli, HPLC-PDA-MS [2] | carotenoid production in E. coli, HPLC-PDA-MS [3] | carotenoid production in E. coli, HPLC-PDA-MS ([1]; E. coli making C40-lycopene, product δ-carotene (ε,ψ-carotene)) |
| --- | --- | --- | --- | --- |
| CC(C)=CCC/C(C)=C/C=C/C(C)=C/C=C/C(C)=C/C=C/C(C)=C/C=C/C=C(C)/C=C/C=C(C)/C=C/C=C(C)/C=C/C=C(\C)CCC=C(C)C [C50-lycopene] | AtE cyclized both ends of the C50-lyopene (Fig 2C) | – | – | – |
| CC(C)=CCC/C(C)=C/C=C/C(C)=C/C=C/C(C)=C/C=C/C=C(C)/C=C/C=C(C)/C=C/C=C(\C)CCC=C(C)C [C40-lycopene] | – | LsE could equally and efficiently act on both sides of C40-lycopene (Fig 3B) | very subtle effect (if not none) of L448H also in the natural C40 pathway | this enzyme fully consumed its natural substrate C40-lycopene and yielded ε, ψ-carotene |
